Results: patent US12691101B2, “Compound and method for preventing or treating of respiratory diseases comprising the same as an active ingredient” (YONSEI UNIVERSITY, UNIVERSITY - INDUSTRY FOUNDATION (UIF), priority 2019, dated 2026)

Key:
[1] = target: T1, hERG (Kv11.1) potassium channel (Homo sapiens, UniProt Q12809); experiment: hERG potassium channel activity, thallium flux in HEK293T cells; format: cell-based
T1 construct: expressed in transfected cells
Description: (A) The inhibition of mouse pendrin (mPDS)-mediated Cl^−/I^− exchange activity by F56 was measured in CHO-K1 cells (mean±S.E., n=5). The indicated concentration of F56 was pretreated for 10 minutes. (B) Summary of dose-response for inhibition of the human pendrin (hPDS)-mediated (closed circle, FIG. (a), C) and mPDS-mediated (open circle) Cl^−/I^− exchange activity. (C-F) Representative traces of intracellular pH in CHO-K1 cells expressing SLC26A3, SLC26A6, SLC26A7 and SLC26A9 were shown. The application of Cl^− free solution induced intracellular alkalization by Cl^−/HCO3^− exchange. The indicated concentration of F56 was pretreated for 10 minutes. (G) the effect of F56 (100 μM) on the CFTR chloride channel activity was measured in FRT cells expressing human CFTR. […] (H) The effect of F56 (100 μM) on the AN01 chloride channel activity was measured in FRT cells expressing human AN01. […] (I) The effect of F56 on the hERG (Kv11.1) potassium channel activity was measured in HEK293T cells expressing human Kv11.1 (mean±S.E., n=4). […] (J) The effect of F56 on the 5-HT2A channel activity was measured in FRT cells expressing human 5-HT2A (mean±S.E., n=4). […]
(A) The effect of F10 (30 μM) on the CFTR channel was measured in FRT cells expressing human CFTR and mutant YFP. […] (B) The effect of F10 (30 μM) on the AN01 channel activity was measured in FRT cells expressing human and mutant YFP. […]

NIH3T3 cells = experiment: Cell viability, MTS colorimetric analysis, NIH3T3; format: cell-based; details: 24 hours, up to 30 μM
Description: (A) Pendrin-mediated Cl^−/I^− exchange activity (mean±S.E., n=5). The indicated concentration of F56 was pretreated for 10 minutes. (B, C) Representative tracing of intracellular pH. The application of Cl^− free solution induced intracellular alkalization through pendrin-mediated Cl^−/HCO3^− and Cl^−/OH^− exchange activity. The indicated concentration of F56 was pretreated for 10 minutes. (D-F) The pendrin-mediated Cl^−/I^− exchange activity was measured in CHO-K1 cells expressing human pendrin. The indicated concentration of F56, PDSinh-A01 and PDSinh-C01 was pretreated for 10 minutes. (G) Summary of dose-response of F56, PDSinh-A01 and PDSinh-C01 (mean±S.E., n=3). (H, I) Effect of F56, PDSinh-A01 and PDSinh-C01 on the cell viability in NIH3T3 (H) and CHO-K1 (I) cells. The cells were treated with F56, PDSinh-A01 and PDSinh-C01 for 24 hours. The cell viability was measured by MTS colorimetric analysis (mean±S.E., n=3). NTC, non-transfected cells.
The cells were treated with F10 for 24 hours. The cell viability was determined by MTS colorimetric analysis (mean±S.E., n=3).

AN01, CFTR and ENaC mRNA = experiment: Real-time PCR of AN01, CFTR and ENaC mRNA in IL-4-treated HNE cells; format: cell-based, human; details: long-term treatment (F10: 120 hours)
Description: The total messenger RNA (mRNA) was extracted using TRIzol reagent (Invitrogen, Carlsbad, CA, USA), and was reverse-transcribed using a random hexamer primer, an oligo(dT) primer and SuperScript® III reverse transcriptase (Invitrogen). Quantitative real-time PCR was performed using StepOnePlus Real-Time PCR system (Applied Biosystems, Foster City, CA, USA) and Thunderbird SYBR qPCR mix (Tokyobo, Osaka, Japan). Thermal cycling conditions included the initial stage at 95° C. for 5 minutes, and subsequent 40 cycles at 95° C. for 10 seconds, at 55° C. for 20 seconds and at 72° C. for […].

T1 sequence (Q12809 whole entry): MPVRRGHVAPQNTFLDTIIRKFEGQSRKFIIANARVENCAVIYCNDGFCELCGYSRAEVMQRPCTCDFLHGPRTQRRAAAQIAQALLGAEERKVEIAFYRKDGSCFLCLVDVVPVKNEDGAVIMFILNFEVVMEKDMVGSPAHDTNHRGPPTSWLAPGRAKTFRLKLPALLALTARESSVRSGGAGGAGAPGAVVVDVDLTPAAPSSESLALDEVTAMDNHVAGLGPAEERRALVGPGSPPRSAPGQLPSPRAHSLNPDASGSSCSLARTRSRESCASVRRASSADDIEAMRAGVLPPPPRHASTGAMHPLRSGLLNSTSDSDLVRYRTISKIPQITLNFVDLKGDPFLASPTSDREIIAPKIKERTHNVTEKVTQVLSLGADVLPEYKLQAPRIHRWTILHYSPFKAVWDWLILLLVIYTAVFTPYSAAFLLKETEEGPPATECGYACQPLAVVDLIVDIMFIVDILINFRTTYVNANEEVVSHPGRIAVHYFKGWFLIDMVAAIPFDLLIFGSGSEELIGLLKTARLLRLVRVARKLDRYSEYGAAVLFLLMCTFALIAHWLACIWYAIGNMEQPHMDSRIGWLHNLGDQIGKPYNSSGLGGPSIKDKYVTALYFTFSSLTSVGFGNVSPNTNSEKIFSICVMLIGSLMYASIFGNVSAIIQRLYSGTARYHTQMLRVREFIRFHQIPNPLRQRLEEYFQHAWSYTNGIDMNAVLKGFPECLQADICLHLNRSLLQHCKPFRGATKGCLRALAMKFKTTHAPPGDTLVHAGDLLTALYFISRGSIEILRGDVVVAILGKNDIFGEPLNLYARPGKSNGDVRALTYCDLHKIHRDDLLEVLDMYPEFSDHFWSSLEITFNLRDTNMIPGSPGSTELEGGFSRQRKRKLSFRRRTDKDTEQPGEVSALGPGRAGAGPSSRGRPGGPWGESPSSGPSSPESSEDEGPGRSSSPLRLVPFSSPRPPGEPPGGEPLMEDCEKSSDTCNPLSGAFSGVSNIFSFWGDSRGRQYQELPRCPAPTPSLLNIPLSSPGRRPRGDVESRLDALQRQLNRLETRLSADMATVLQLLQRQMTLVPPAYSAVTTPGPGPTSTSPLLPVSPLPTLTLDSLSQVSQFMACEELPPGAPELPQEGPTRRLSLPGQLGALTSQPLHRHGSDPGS

Row | SMILES | effect on hERG channel activity ([1]; 30 μM) | cytotoxicity in NIH3T3 cells (NIH3T3 cells) | mRNA expression of AN01, CFTR and ENaC (AN01, CFTR and ENaC mRNA) | effect on hERG channel activity ([1]; pretreated 10 minutes)
1 | CC(C)(C)c1ccc(C2=NC(=Cc3ccc[nH]3)C(=O)O2)cc1 [F10, 4-((1H-pyrrol-2-yl)methylene)-2-(4-(tert-butyl)phenyl)oxazol-5 (4H)-one] | did not show any effect | did not show any cytotoxicity up to 30 μM | did not show any effect | –
2 | CC(C)(C)c1ccc(C2=NC(=Cc3cccs3)C(=O)O2)cc1 [F56, 2-(4-(tert-butyl)phenyl)-4-(thiophen-2-ylmethylene)oxazol-5(4H)-one] | – | did not show cytotoxicity up to 30 μM | did not change | not affected
